Data set [1] has as its target T1, COMT in HLC (Homo sapiens, UniProt P21964).
T1 construct: Pooled human liver cytosol (HLC) from seven male donors; tissue Research Institute for Liver Diseases (Shanghai, China) Lot; QROX; host or cells: pooled human liver cytosol, seven male donors
T1 sequence (P21964 1-221 isoform P21964-2): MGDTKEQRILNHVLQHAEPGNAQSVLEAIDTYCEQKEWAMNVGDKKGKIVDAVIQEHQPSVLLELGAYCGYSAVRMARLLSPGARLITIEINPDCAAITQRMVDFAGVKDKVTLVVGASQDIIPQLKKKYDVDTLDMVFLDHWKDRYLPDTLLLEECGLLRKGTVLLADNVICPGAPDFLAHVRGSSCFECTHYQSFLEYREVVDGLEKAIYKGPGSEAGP
As to the kind of experiment: Methylation kinetics in pooled human liver cytosol (HLC). As to conditions: identified by NMR. In kind it is in vitro ADME.

For data set [2] the following is noted: after administration in rats; cited from earlier work.
Data set [3] concerns the target T2, recombinant human soluble COMT (S-COMT) (Homo sapiens, UniProt P21964).
T2 construct: made in house
T2 sequence (P21964 1-221 isoform P21964-2): T1 sequence (P21964 1-221 isoform P21964-2)
As to the kind of experiment: Methylation kinetics with recombinant human soluble COMT. Type of data set: in vitro ADME. As to conditions: for Clint: intrinsic clearance (Vmax/Km). The protocol: (§1) Reaction mixtures were pre-incubated at 37°C for 5 min and initiated by the addition of SAM to a final concentration of 0.4 mM. The samples were incubated for a certain period of time and the reaction was terminated by the addition of 200 µl ice-cold acetonitrile and then centrifuged at 20 000g, 4°C, for 20 min. Control incubations were performed either without human liver cytosol, or without SAM or without substrate. The supernatants were subjected to ultra-fast liquid chromatography (UFLC) coupled with a diode array detector (DAD) and an electrospray ionization (ESI) mass spectrometer (MS) analyzer.
(§2) 7,8-DHCs and their methylated conjugates were analysed by a UFLC spectrometry system (Shimadzu, Kyoto, Japan), equipped with two LC-20AD pumps, a DGU-20A3 vacuum degasser, a SIL-20ACHT auto-sampler, a CTO-20AC column oven, an SPD-M 20A DAD, a CBM-20A communications bus module, a mass detector (2010EV) with an ESI interface and a computer equipped with UFLC-MS SOLUTION v. 3.41 software. A Shimadzu ODS (75.0 × 2.0 mm, 3 µm) analytical column was used to separate 7,8-DHCs and their methylated conjugates. Column temperature was kept at 40°C. […] The methylation samples were stable over 72 h at 4°C. 7,8-DHC methylation was quantified by the standard curves of the methylated conjugates at the detector wavelength of 325 nm, which were linear from 0.01 to 10 µM (the correlation coefficient was 0.999).
(§3) For estimating kinetic parameters, 7,8-DHCs (0.1–40 µM) were incubated with pooled HLC and S-COMT. 7,8-DHCs (0.1–40 µM) were incubated with HLC or S-COMT for 5 min, using a microsomal protein concentration of 0.5 mg ml^−1 or 0.002 mg ml^−1 for HLC and S-COMT, respectively. Kinetic constants for 7,8-DHCs methylation by HLC and S-COMT were obtained by fitting the Michaelis–Menten kinetics equation (3.1) to experimental data.
(§4) For the Michaelis–Menten kinetic model, 3.1 v=Vmax×[S]/Km+[S], where v is the rate of reaction, [S] is the substrate concentration, Vmax is the maximum velocity estimate and Km is the apparent affinity constant.
(§5) All incubations were performed in duplicate. Kinetic constants were obtained using GraphPad PRISM 6 (GraphPad Software, Inc. La Jolla, CA) software.

In the next data set the test system is human hepatocytes. The conditions noted are these: cited from earlier work.
In data set [4] the target is T1, COMT in HLC. As to the kind of experiment: Methylation kinetics in pooled human liver cytosol (HLC). In kind it is in vitro ADME. As to conditions: for Clint: intrinsic clearance (Vmax/Km); for COMT substrate in human liver cytosol: human liver cytosol with SAM. The protocol: as §1, §2, §3, §4, §5

For the compound `O=c1ccc2ccc(O)c(O)c2o1` [daphnetin, 7,8-dihydroxycoumarin], the methylated metabolite identified on COMT in HLC [1] is given as 8-O-methylated 7,8-DHC. The half-life (usually how long it takes for the measured level to halve) in data set [2] is recorded as 15 min. The maximal velocity (Vmax) (in general, the top rate of the reaction or transport when substrate is in excess) in data set [3] (best-fit value ± s.e.) is 81.4 ± 2.4 nmol/min/mg; on COMT in HLC [4] (HLC, best-fit value ± s.e.), 0.11 ± 0.0034 nmol/min/mg. Moreover, the Clint stood at 169.5 µL/min/mg in data set [3] and 0.52 µL/min/mg on COMT in HLC [4] (HLC). Besides, in the data set with human hepatocytes, the methyl-derived metabolites is 37.3%. The “COMT substrate in human liver cytosol” value at COMT in HLC [4] is “COMT substrates”.

As for `O=C(O)Cc1cc(=O)oc2c(O)c(O)ccc12` [4-ADPN, 4-acetic acid daphnetin], the methylated metabolite identified on COMT in HLC [1] was 8-O-methylated 7,8-DHC. In addition, the figures for the Clint (in data set [3]; on COMT in HLC [4] (HLC)) were 31.1 µL/min/mg and 0.017 µL/min/mg, respectively. Further, at COMT in HLC [4], the “COMT substrate in human liver cytosol” value was “COMT substrates”.

For the compound `O=c1cc(-c2ccccc2)c2ccc(O)c(O)c2o1` [4-PDPN, 4-phenyl daphnetin], the methylated metabolite identified at COMT in HLC [1] is listed as 8-O-methylated 7,8-DHC. Also, the Clint in data set [3] was 424.0 µL/min/mg; on COMT in HLC [4] (HLC) it was 1.91 µL/min/mg. In addition, at COMT in HLC [4], the “COMT substrate in human liver cytosol” value is reported as “COMT substrates”.

On to `Cc1cc(=O)oc2c(O)c(O)ccc12` [4-MDPN, 4-methyl daphnetin], for which the methylated metabolite identified on COMT in HLC [1] was 8-O-methylated 7,8-DHC. In addition, the Clint in data set [3] came out at 154.8 µL/min/mg; on COMT in HLC [4] (HLC), 0.70 µL/min/mg. Besides, the “COMT substrate in human liver cytosol” value on COMT in HLC [4] is given as “COMT substrates”.

The record behind these values is PMC5792912 (Royal Society Open Science, 2018).
